# Values joined by “and” are separate entries in the source; they are usually repeats but may differ in a detail not shown here. Identical values can stand only once.
# Key:
# [1] = system: SARS-CoV-2 replicon system (pBAC-SARS-CoV-2-Replicon-Luc); assay: microbe, parasite or virus in culture; format: cell-based
# [2] = system: SARS-CoV-2 (B.1) in Huh7 cells; assay: Anti-SARS-CoV-2 activity in Huh7 cells (viral yield by qRT-PCR); format: cell-based; conditions: B.1, MOI 0.05, 48 h
# [3] = CCK-8 cell viability assay; format: cell-based, African green monkey; conditions: African green monkey; Vero E6 cells, 48 h, CCK8
# Summary of the method: (§1)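 Vero E6 cells, 20,000/well, exposed to compound at 0–200 μM (0, 0.01, 0.1, 1, 5, 10, 50, 75, 100, 200 μM) for 48 h; viability read by CCK-8 and expressed as percentage versus drug concentration, mean ± SD.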
# Vero E6 cells = assay: CCK-8 cell viability assay; format: cell-based, African green monkey; conditions: individual replicate values, Fig.S4
# Summary of the method: as §1
# [4] = system: SARS-CoV-2 (Omicron, B.1.1.529); assay: microbe, parasite or virus in culture
# SARS-CoV-2 (B.1) = assay: Anti-SARS-CoV-2 activity in Vero E6 cells (viral yield by qRT-PCR); format: cell-based
# [5] = system: SARS-CoV-2 (Delta, B.1.617.2); assay: microbe, parasite or virus in culture; format: cell-based; conditions: for % Inhibition: delta
# [6] = Permeability and efflux ratio in Caco-2 cells; format: in vitro ADME; conditions: human
# Text: ATV019, and ATV020 in Caco-2 cells.
# Compound Caco-2 AB/BA (Papp (10-6 cm/s)) a Efflux ratio
# [7] = system: SARS-CoV-2 (Beta, B.1.351); assay: microbe, parasite or virus in culture; format: cell-based; conditions: for % Inhibition: beta
# [8] = Severe acute respiratory syndrome coronavirus 2, Vero C1008, read-out: EC90 (Confidence 95%)
smiles,measurement,setting,value
CC(C)C(=O)OC[C@H]1O[C@@](C#N)(c2ccc3c(N)ncnn23)[C@H](O)[C@@H]1O [ATV006],activity in the replicon system in comparison with parent GS-441524,[1],improved the inhibitory activities
same,EC50,"[1]; Severe acute respiratory syndrome coronavirus 2, HEK-293T, 60 h, read-out: EC50 (Confidence 95%), replicon",521 nM
same,EC90,"[1]; Severe acute respiratory syndrome coronavirus 2, HEK-293T, 60 h, read-out: EC90 (Confidence 95%), replicon",3.23 µM
same,EC50,"[2]; Severe acute respiratory syndrome coronavirus 2, Huh-7, read-out: EC50 (Confidence 95%) in Huh7 cells",1630 nM
same,EC90,"[2]; Severe acute respiratory syndrome coronavirus 2, Huh-7, read-out: EC90 (Confidence 95%) in Huh7 cells",1960 nM
same,CC50 at 48 h,[3],128 µM
same,cell viability (% of control),"Vero E6 cells; 0.01 μM compound, 0.01 µM",93.4165 % of control and 118.52 % of control and 111.314 % of control
same,cell viability (% of control),"Vero E6 cells; 0.1 μM compound, 0.1 µM",114.92 % of control and 109.106 % of control and 122.304 % of control
same,cell viability (% of control),"Vero E6 cells; 1 μM compound, 1 µM",103.338 % of control and 92.7243 % of control and 89.4018 % of control
same,cell viability (% of control),"Vero E6 cells; 2 μM compound, 2 µM",94.6163 % of control and 92.5859 % of control and 102 % of control
same,cell viability (% of control),"Vero E6 cells; 5 μM compound, 5 µM",130.333 % of control and 131.994 % of control and 107.906 % of control
same,cell viability (% of control),"Vero E6 cells; 10 μM compound, 10 µM",124.057 % of control and 118.52 % of control and 118.981 % of control
same,cell viability (% of control),"Vero E6 cells; 50 μM compound, 50 µM",93.4165 % of control and 89.4165 % of control
same,cell viability (% of control),"Vero E6 cells; 75 μM compound, 75 µM",60.8815 % of control and 65.7193 % of control and 58.2133 % of control
same,cell viability (% of control),"Vero E6 cells; 100 μM compound, 100 µM",50.7027 % of control and 56.7073 % of control and 50.0144 % of control
same,cell viability (% of control),"Vero E6 cells; 200 μM compound, 200 µM",35.664 % of control and 47.0944 % of control and 42.1024 % of control
same,EC50,"[4]; Severe acute respiratory syndrome coronavirus 2, Vero C1008, 48 h, read-out: EC50 in Vero E6 cells, SARS-CoV-2 (Omicron, B.1.1.529)",106 nM
same,inhibition at 0.008 µM,"[4]; Severe acute respiratory syndrome coronavirus 2, Vero C1008, Omicon, 0.008 uM, Vero E6, replicates",0%
same,inhibition at 0.208 µM,"[4]; Severe acute respiratory syndrome coronavirus 2, Vero C1008, Omicon, 0.208 uM, Vero E6, replicates",81.1%
same,inhibition at 0.625 µM,"[4]; Severe acute respiratory syndrome coronavirus 2, Vero C1008, Omicon, 0.625 uM, Vero E6, replicates",99.7%
same,inhibition at 2.5 µM,"[4]; Severe acute respiratory syndrome coronavirus 2, Vero C1008, Omicon, 2.5 uM, Vero E6, replicates",99.9%
same,inhibition at 5 µM,"[4]; Severe acute respiratory syndrome coronavirus 2, Vero C1008, Omicon, 5 uM, Vero E6, replicates",100%
same,inhibition at 10 µM,"[4]; Severe acute respiratory syndrome coronavirus 2, Vero C1008, Omicon, 10 uM, Vero E6, replicates",100%
same,EC90,[4]; [8],269 nM
same,% Inhibition,"SARS-CoV-2 (B.1); 1 μM, replicates, sheet Fig.S3",3.722%
same,% Inhibition,"SARS-CoV-2 (B.1); 2 μM, replicates, sheet Fig.S3",87.0049%
same,% Inhibition,"SARS-CoV-2 (B.1); 5 μM, replicates, sheet Fig.S3",91.6411%
same,% Inhibition,"SARS-CoV-2 (B.1); 10 μM, replicates, sheet Fig.S3",90.9393%
same,% Inhibition,"SARS-CoV-2 (B.1); B.1, 1 uM, Vero E6, replicates, 1 µM",3.249%
same,% Inhibition,"SARS-CoV-2 (B.1); B.1, 2 uM, Vero E6, replicates, 2 µM",99.386%
same,% Inhibition,"SARS-CoV-2 (B.1); B.1, 5 uM, Vero E6, replicates, 5 µM",99.8149%
same,% Inhibition,"SARS-CoV-2 (B.1); B.1, 10 uM, Vero E6, replicates, 10 µM",99.9851%
same,% Inhibition,"SARS-CoV-2 (B.1); B.1, 50 uM, Vero E6, replicates, 50 µM",99.991%
same,inhibition at 0.1 µM,"SARS-CoV-2 (B.1); Severe acute respiratory syndrome coronavirus 2, Vero C1008, 0.1 μM, replicates, sheet Fig.S3",0%
same,inhibition at 0.5 µM,"SARS-CoV-2 (B.1); Severe acute respiratory syndrome coronavirus 2, Vero C1008, 0.5 μM, replicates, sheet Fig.S3",0%
same,inhibition at 2 µM,"SARS-CoV-2 (B.1); Severe acute respiratory syndrome coronavirus 2, Vero C1008, 2 μM, replicates, sheet Fig.S3",87.7%
same,inhibition at 5 µM,"SARS-CoV-2 (B.1); Severe acute respiratory syndrome coronavirus 2, Vero C1008, 5 μM, replicates, sheet Fig.S3",93.3%
same,inhibition at 10 µM,"SARS-CoV-2 (B.1); Severe acute respiratory syndrome coronavirus 2, Vero C1008, 10 μM, replicates, sheet Fig.S3",93.2%
same,inhibition at 0.01 µM,"SARS-CoV-2 (B.1); Severe acute respiratory syndrome coronavirus 2, Vero C1008, B.1, 0.01 uM, Vero E6, replicates",0%
same,inhibition at 0.1 µM,"SARS-CoV-2 (B.1); Severe acute respiratory syndrome coronavirus 2, Vero C1008, B.1, 0.1 uM, Vero E6, replicates",0%
same,inhibition at 0.25 µM,"SARS-CoV-2 (B.1); Severe acute respiratory syndrome coronavirus 2, Vero C1008, B.1, 0.25 uM, Vero E6, replicates",0%
same,inhibition at 0.5 µM,"SARS-CoV-2 (B.1); Severe acute respiratory syndrome coronavirus 2, Vero C1008, B.1, 0.5 uM, Vero E6, replicates",0%
same,inhibition at 1 µM,"SARS-CoV-2 (B.1); Severe acute respiratory syndrome coronavirus 2, Vero C1008, B.1, 1 uM, Vero E6, replicates",3.85%
same,inhibition at 2 µM,"SARS-CoV-2 (B.1); Severe acute respiratory syndrome coronavirus 2, Vero C1008, B.1, 2 uM, Vero E6, replicates",97.4%
same,inhibition at 5 µM,"SARS-CoV-2 (B.1); Severe acute respiratory syndrome coronavirus 2, Vero C1008, B.1, 5 uM, Vero E6, replicates",99.8%
same,inhibition at 10 µM,"SARS-CoV-2 (B.1); Severe acute respiratory syndrome coronavirus 2, Vero C1008, B.1, 10 uM, Vero E6, replicates",99.9%
same,inhibition at 50 µM,"SARS-CoV-2 (B.1); Severe acute respiratory syndrome coronavirus 2, Vero C1008, B.1, 50 uM, Vero E6, replicates",100%
same,EC90,SARS-CoV-2 (B.1); [8],2180 nM
same,EC50,"SARS-CoV-2 (B.1); Severe acute respiratory syndrome coronavirus 2, Vero C1008, MOI 0.05, 48 h",1360 nM
same,EC50,"[5]; Severe acute respiratory syndrome coronavirus 2, Vero C1008, 48 h, read-out: EC50 in Vero E6 cells, SARS-CoV-2 (Delta, B.1.617.2)",349 nM
same,inhibition at 0.01 µM,"[5]; Severe acute respiratory syndrome coronavirus 2, Vero C1008, delta, 0.01 uM, Vero E6, replicates",0%
same,inhibition at 0.1 µM,"[5]; Severe acute respiratory syndrome coronavirus 2, Vero C1008, delta, 0.1 uM, Vero E6, replicates",0%
same,inhibition at 0.25 µM,"[5]; Severe acute respiratory syndrome coronavirus 2, Vero C1008, delta, 0.25 uM, Vero E6, replicates",13.4%
same,inhibition at 0.5 µM,"[5]; Severe acute respiratory syndrome coronavirus 2, Vero C1008, delta, 0.5 uM, Vero E6, replicates",86.8%
same,inhibition at 1 µM,"[5]; Severe acute respiratory syndrome coronavirus 2, Vero C1008, delta, 1 uM, Vero E6, replicates",94.7%
same,inhibition at 2 µM,"[5]; Severe acute respiratory syndrome coronavirus 2, Vero C1008, delta, 2 uM, Vero E6, replicates",96.7%
same,inhibition at 5 µM,"[5]; Severe acute respiratory syndrome coronavirus 2, Vero C1008, delta, 5 uM, Vero E6, replicates",95.5%
same,inhibition at 10 µM,"[5]; Severe acute respiratory syndrome coronavirus 2, Vero C1008, delta, 10 uM, Vero E6, replicates",99.9%
same,inhibition at 50 µM,"[5]; Severe acute respiratory syndrome coronavirus 2, Vero C1008, delta, 50 uM, Vero E6, replicates",99.9%
same,EC90,"[5]; Severe acute respiratory syndrome coronavirus 2, Vero C1008, read-out: EC90 (Confidence 95%), Vero-E6, Delta B.1.617.2",506 nM
same,% Inhibition,"[5]; 0.25 uM, Vero E6, replicates",17.4307%
same,% Inhibition,"[5]; 0.5 uM, Vero E6, replicates",86.6826%
same,% Inhibition,"[5]; 1 uM, Vero E6, replicates",92.7523%
same,% Inhibition,"[5]; 2 uM, Vero E6, replicates",95.2669%
same,% Inhibition,"[5]; 5 uM, Vero E6, replicates",93.5585%
same,% Inhibition,"[5]; 10 uM, Vero E6, replicates",99.4329%
same,% Inhibition,"[5]; 50 uM, Vero E6, replicates",99.3835%
same,efflux ratio,[6],1.7
same,Papp A→B,[6]; AB,0.51 ×10⁻⁶ cm/s
same,Papp B→A,[6]; BA,0.87 ×10⁻⁶ cm/s
same,EC50,"[7]; Severe acute respiratory syndrome coronavirus 2, Vero C1008, 48 h, read-out: EC50 in Vero E6 cells, SARS-CoV-2 (Beta, B.1.351)",1130 nM
same,inhibition at 0.01 µM,"[7]; Severe acute respiratory syndrome coronavirus 2, Vero C1008, beta, 0.01 uM, Vero E6, replicates",0%
same,inhibition at 0.1 µM,"[7]; Severe acute respiratory syndrome coronavirus 2, Vero C1008, beta, 0.1 uM, Vero E6, replicates",0%
same,inhibition at 0.25 µM,"[7]; Severe acute respiratory syndrome coronavirus 2, Vero C1008, beta, 0.25 uM, Vero E6, replicates",0%
same,inhibition at 0.5 µM,"[7]; Severe acute respiratory syndrome coronavirus 2, Vero C1008, beta, 0.5 uM, Vero E6, replicates",0%
same,inhibition at 1 µM,"[7]; Severe acute respiratory syndrome coronavirus 2, Vero C1008, beta, 1 uM, Vero E6, replicates",32.1%
same,inhibition at 2 µM,"[7]; Severe acute respiratory syndrome coronavirus 2, Vero C1008, beta, 2 uM, Vero E6, replicates",99.6%
same,inhibition at 5 µM,"[7]; Severe acute respiratory syndrome coronavirus 2, Vero C1008, beta, 5 uM, Vero E6, replicates",99.7%
same,inhibition at 10 µM,"[7]; Severe acute respiratory syndrome coronavirus 2, Vero C1008, beta, 10 uM, Vero E6, replicates",99.9%
same,inhibition at 50 µM,"[7]; Severe acute respiratory syndrome coronavirus 2, Vero C1008, beta, 50 uM, Vero E6, replicates",99.9%
same,EC90,"[7]; Severe acute respiratory syndrome coronavirus 2, Vero C1008, read-out: EC90 (Confidence 95%), Vero-E6, Beta B.1.351",1360 nM
same,% Inhibition,"[7]; 1 uM, Vero E6, replicates",16.537%
same,% Inhibition,"[7]; 2 uM, Vero E6, replicates",99.486%
same,% Inhibition,"[7]; 5 uM, Vero E6, replicates",99.5312%
same,% Inhibition,"[7]; 10 uM, Vero E6, replicates",99.9431%
same,% Inhibition,"[7]; 50 uM, Vero E6, replicates",99.9484%

# Reference: PMC9161374 (Science Translational Medicine, 2022)
